According to ChEMBL document CHEMBL5725463, “Amino-dihydrothiazine and amino-dioxido dihydrothiazine compounds as beta-secretase antagonists and methods of use” (2017):

Tests used:
Cathepsin D = Cathepsin D (Homo sapiens, UniProt P07339); assay: In Vitro Enzymatic: Recombinant Cat D was expressed in CHO cells. The assay buffer for CathepsinD is 0.05 M citrate pH 3.5, 10% DMSO final, 5 mM CHAPS. The Cat D enzyme (9 nM) is pre-incubated for one hour with inhibitors, typically in about 1 uL of DMSO according to a serial dilution, is added thereto. The assays are effectively started by the addition of different FRET substrates (20 nM for Cat D) and the combination is incubated for one hour. The FRET assay is terminated with by addition of Tris buffer, which raises the pH to neutrality, and the fluorescence is determined. The FRET substrate is a peptide with commercially available fluorophore and quencher, on opposite sides of the BACE cleavage site. The Cat D substrate peptide sequence is based on sequence #1 of Table 1 from Gulnik et al. FEBS Letters v413 p 379-384 1997. Proteolytic cleavage of the FRET substrate releases quenching of fluorescence (Cat D excitation 500 nm and emission 580 nm).Alternatively, a Cat D assay may also be run according to the procedure described in the article, Characterization of new fluorgenic substrates for the rapid and sensitive assay of cathepsin E and cathepsin D, J. Biochem., 125:1137, 1999.; assay type: cell-based
Sequence of Cathepsin D (P07339 65-162 limits assumed): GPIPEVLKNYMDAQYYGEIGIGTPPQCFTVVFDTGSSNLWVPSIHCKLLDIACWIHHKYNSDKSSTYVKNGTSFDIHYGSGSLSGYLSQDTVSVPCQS
Sequence of Cathepsin D (P07339 169-412 limits assumed): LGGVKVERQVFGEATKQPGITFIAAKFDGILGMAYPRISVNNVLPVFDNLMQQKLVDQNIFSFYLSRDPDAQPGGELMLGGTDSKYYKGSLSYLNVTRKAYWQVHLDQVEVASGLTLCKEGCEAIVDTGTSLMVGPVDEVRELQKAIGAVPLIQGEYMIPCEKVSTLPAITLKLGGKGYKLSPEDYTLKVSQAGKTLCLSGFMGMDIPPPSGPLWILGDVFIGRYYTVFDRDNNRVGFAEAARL

Beta-secretase 1 = Beta-secretase 1 (Homo sapiens, UniProt P56817); assay: In Vivo Inhibition of Beta-Secretase: Several animal models, including mouse, rat, dog, and monkey, may be used to screen for inhibition of beta-secretase activity in vivo following administration of a test compound sample. Animals used in this invention can be wild type, transgenic, or gene knockout animals. For example, the Tg2576 mouse model, prepared and conducted as described in Hsiao et al., 1996, Science 274, 99-102, and other non-transgenic or gene knockout animals are useful to analyze in vivo inhibition of Amyloid beta peptide (Abeta) production in the presence of inhibitory test compounds. Generally, 2 to 18 month old Tg2576 mice, gene knockout mice or non-transgenic animals are administered test compounds formulated in vehicles, such as cyclodextran, phosphate buffers, hydroxypropyl methylcellulose or other suitable vehicles. […]; assay type: organism-based
Sequence of Beta-secretase 1 (P56817 whole entry): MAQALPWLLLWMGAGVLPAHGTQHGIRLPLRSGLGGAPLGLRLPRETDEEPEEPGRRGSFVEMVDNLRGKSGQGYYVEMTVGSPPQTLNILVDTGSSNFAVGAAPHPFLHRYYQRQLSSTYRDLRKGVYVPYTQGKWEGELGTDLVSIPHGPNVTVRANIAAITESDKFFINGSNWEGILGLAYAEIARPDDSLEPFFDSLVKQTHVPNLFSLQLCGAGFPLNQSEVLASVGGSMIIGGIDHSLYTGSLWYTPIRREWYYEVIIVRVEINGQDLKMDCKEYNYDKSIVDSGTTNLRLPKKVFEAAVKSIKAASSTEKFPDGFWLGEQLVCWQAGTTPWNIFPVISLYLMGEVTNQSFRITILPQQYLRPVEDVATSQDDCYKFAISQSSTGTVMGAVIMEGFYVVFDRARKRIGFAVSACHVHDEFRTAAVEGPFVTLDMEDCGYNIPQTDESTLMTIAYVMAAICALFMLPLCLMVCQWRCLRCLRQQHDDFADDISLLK

SMILES | IC50 (Cathepsin D) [µM] | IC50 (Beta-secretase 1) [µM]
Cc1cc(C#N)cnc1C(=O)Nc1ccc(F)c([C@]2(C)CS(=O)(=O)C3(CCC3)C(N)=N2)c1 | 134 | 0.00076
Cc1cc(Cl)cnc1C(=O)Nc1ccc(F)c([C@]2(C)CS(=O)(=O)C3(CCC3)C(N)=N2)c1 | 84.7 | 0.0016
